{
  "source": "ChEMBL document CHEMBL1201862",
  "about": "“PubChem BioAssay data set” (2004)",
  "key": {"[1]": {"biological_target": "5-hydroxytryptamine receptor 1E (Homo sapiens, UniProt P28566)", "sequence (P28566 whole entry)": "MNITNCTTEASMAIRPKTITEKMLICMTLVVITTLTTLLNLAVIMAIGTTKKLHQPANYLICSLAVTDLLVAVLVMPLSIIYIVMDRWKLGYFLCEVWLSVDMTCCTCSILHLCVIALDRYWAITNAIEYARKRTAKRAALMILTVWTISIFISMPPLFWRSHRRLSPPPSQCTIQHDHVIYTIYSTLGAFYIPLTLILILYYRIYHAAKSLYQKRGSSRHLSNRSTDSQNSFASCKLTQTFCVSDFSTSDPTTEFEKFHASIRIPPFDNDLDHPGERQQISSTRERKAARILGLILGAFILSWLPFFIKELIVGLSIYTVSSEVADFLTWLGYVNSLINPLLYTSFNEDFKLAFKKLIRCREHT", "test": "Counterscreen assay for S1P3 antagonists: Dose response cell-based high throughput screening assay to identify antagonists of the 5-Hydroxytryptamine Receptor Subtype 1E (5HT1E). [Related pubchem assays: 1429, 485 ]", "assay_type": "functional"}, "[2]": {"biological_target": "Sphingosine 1-phosphate receptor 3 (Homo sapiens, UniProt Q99500)", "sequence (Q99500 whole entry)": "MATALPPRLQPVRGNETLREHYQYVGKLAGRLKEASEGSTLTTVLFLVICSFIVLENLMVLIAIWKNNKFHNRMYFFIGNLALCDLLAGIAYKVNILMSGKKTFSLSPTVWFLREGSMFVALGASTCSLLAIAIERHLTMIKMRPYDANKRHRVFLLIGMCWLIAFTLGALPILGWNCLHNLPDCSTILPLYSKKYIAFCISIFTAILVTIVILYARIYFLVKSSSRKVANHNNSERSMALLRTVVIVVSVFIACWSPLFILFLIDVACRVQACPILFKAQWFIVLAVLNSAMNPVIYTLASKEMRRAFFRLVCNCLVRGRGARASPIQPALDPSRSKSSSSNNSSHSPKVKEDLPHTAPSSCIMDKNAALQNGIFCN", "test": "Dose response cell-based high throughput screening assay for antagonists of the Sphingosine 1-Phosphate Receptor 3 (S1P3). [Related pubchem assays: 1429, 485 ]", "assay_type": "functional"}, "HEK293 [3]": {"system": "HEK293", "test": "inhibition of NOD1-driven NF-kB reporter – cell-based, luminescence, uHTS, primary screen (AID 1578)", "assay_type": "functional", "details": "Homo sapiens"}, "BJ [4]": {"system": "BJ", "test": "BJ-TERT fibroblast viability loss – cell-based, RAS-independent, luminescence, dose response (AID 1933)", "assay_type": "functional", "details": "Homo sapiens"}, "HEK293 [5]": {"system": "HEK293", "test": "cells", "assay_type": "functional, cell-based", "details": "Homo sapiens"}, "cells [6]": {"test": "cells", "assay_type": "functional, cell-based"}, "BJ [7]": {"system": "BJ", "test": "cells", "assay_type": "functional, cell-based", "details": "Homo sapiens"}, "HEK293 [8]": {"system": "HEK293", "test": "cells", "assay_type": "functional, cell-based", "details": "Homo sapiens", "remark": "listed apart in the source"}, "[9]": {"biological_target": "Nucleotide-binding oligomerization domain-containing protein 2 (Homo sapiens, UniProt Q9HC29)", "sequence (Q9HC29 whole entry, the tested form may be a part)": "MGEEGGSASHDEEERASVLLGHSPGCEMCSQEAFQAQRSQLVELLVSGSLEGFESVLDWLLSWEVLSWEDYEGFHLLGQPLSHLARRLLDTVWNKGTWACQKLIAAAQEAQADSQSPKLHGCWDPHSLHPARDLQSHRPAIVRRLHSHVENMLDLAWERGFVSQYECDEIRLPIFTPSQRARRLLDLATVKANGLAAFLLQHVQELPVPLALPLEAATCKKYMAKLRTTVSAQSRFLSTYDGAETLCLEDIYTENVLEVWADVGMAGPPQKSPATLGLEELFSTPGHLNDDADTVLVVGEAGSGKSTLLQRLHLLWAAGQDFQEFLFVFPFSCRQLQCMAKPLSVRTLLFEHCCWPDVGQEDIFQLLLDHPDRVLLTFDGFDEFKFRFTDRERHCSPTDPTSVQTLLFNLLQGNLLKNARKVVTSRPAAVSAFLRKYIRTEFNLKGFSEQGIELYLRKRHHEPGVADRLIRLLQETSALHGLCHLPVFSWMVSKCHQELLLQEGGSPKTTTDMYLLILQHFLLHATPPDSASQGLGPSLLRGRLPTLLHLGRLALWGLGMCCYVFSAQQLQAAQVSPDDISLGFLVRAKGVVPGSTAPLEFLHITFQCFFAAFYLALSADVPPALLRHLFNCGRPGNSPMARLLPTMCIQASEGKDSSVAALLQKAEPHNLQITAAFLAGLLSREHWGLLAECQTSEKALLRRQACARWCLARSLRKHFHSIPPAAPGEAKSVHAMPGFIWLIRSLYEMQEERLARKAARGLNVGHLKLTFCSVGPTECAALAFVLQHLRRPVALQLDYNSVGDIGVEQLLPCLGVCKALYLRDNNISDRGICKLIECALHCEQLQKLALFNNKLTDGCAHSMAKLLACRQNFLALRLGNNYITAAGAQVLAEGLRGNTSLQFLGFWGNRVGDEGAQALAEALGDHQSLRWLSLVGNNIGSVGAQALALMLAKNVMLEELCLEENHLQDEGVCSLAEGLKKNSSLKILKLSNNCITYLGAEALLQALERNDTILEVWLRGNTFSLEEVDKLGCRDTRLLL", "test": "inhibition of NOD2-driven NF-kB reporter – cell-based, luminescence, uHTS, HEK293 (AID 1566)", "assay_type": "functional"}, "HEK293 [10]": {"system": "HEK293", "test": "NOD2 signaling inhibitors in MDP-stimulated cells, cell-based, uHTS, luminescence (AID 2001)", "assay_type": "functional", "details": "Homo sapiens"}, "HEK293 [11]": {"system": "HEK293", "test": "cells", "assay_type": "functional, cell-based", "details": "Homo sapiens", "remark": "listed apart in the source"}, "[12]": {"test": "Luminescence-based dose response cell-based high throughput screening assay for cytotoxic compounds using the IEC-6 intestinal epithelial cell line. [Related pubchem assays: 1858 (Summary AID.), 1825 (Counterscreen.), 1907 (Confirmation screen.)]", "assay_type": "functional"}, "cells [13]": {"test": "cells", "assay_type": "functional, cell-based", "remark": "listed apart in the source"}, "BJ [14]": {"system": "BJ", "test": "BJ-TERT-LT-ST fibroblast viability loss – cell-based, RAS-independent, luminescence, dose response (AID 1935);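 further: BJ fibroblasts immortalized with TERT plus LT and ST oncogenes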", "assay_type": "functional", "details": "Homo sapiens"}, "[15]": {"test": "DRD fibroblast viability loss – cell-based, non-viral oncogenic, luminescence, dose response (AID 1934)", "assay_type": "functional", "details": "Homo sapiens"}, "Nonstructural protein 1": {"biological_target": "Nonstructural protein 1 (Influenza A virus, UniProt Q194T2)", "sequence (Q194T2 whole entry)": "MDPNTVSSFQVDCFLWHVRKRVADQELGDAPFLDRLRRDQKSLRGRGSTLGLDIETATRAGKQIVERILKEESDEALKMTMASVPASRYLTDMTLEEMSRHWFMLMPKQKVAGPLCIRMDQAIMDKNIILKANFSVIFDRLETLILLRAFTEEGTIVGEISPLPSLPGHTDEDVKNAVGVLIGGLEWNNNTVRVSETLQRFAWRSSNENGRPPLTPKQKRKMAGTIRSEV", "assay_type": "functional, Influenza A virus (A/California/07/2009(H1N1))"}, "HEK293 [16]": {"system": "HEK293", "test": "EBV LMP1 TES2 canonical NF-kB signalling blockers – cell-based, HEK293, luciferase, cherry-pick, dose response (AID 588343)", "assay_type": "functional", "details": "Homo sapiens"}, "INS1": {"system": "INS1", "test": "INS-1E survival protection against cytokine death – cell-based, luminescence, retest, dose response (AID 449756);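 further: cell death triggered by IL-1 beta plus TNF-alpha plus IFN-gamma mixture; protective hits raise ATP signal compared with cytokine alone wells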", "assay_type": "functional", "details": "Rattus norvegicus"}, "[17]": {"test": "reduction of Shn3 3'UTR-driven luciferase in osteoblasts – cell-based, Clone20 osteoblasts, firefly luciferase, cherry-picked, dose response (AID 624132)", "assay_type": "functional"}, "[18]": {"test": "loss of viability in HepG2 cells – cell-based, CellTiter-Glo, cherry-picked, cytotoxicity control for Shn3 inhibitor project, dose response (AID 624134)", "assay_type": "functional"}, "[19]": {"test": "non-specific 3'UTR reporter inhibition in Clone20-Shn3RL – cell-based, Renilla luciferase, cherry-picked, counter-screen for Shn3 inhibitor project, dose response (AID 624133)", "assay_type": "functional"}},
  "note": "Activity calls are given as the source filed them.",
  "data": [
    {"smiles": "CCCn1nc2ccccc2c1P(=O)(N1CCOCC1)N1CCOCC1", "values": [
      {"measurement": "IC50", "setting": "[1]", "result": "> 50 µM (not active)"},
      {"measurement": "IC50", "setting": "[2]", "result": "> 50 µM (not active)"}
    ]},
    {"smiles": "CC(=O)NC(c1cccc([N+](=O)[O-])c1)c1ccc2cccnc2c1O", "note": "(stereo unspecified)", "values": [
      {"measurement": "EC50", "setting": "HEK293 [3]", "result": "> 20 µM (inactive)"},
      {"measurement": "EC50", "setting": "BJ [4]", "result": "1.7 µM (inconclusive)"},
      {"measurement": "IC50", "setting": "HEK293 [5]", "result": "19.8 µM (active)"},
      {"measurement": "EC50", "setting": "cells [6]", "result": "4.94 µM (active)"},
      {"measurement": "EC50", "setting": "BJ [7]", "result": "10.7 µM (active)"},
      {"measurement": "IC50", "setting": "HEK293 [8]", "result": "> 20 µM (inactive)"},
      {"measurement": "EC50", "setting": "[9]", "result": "> 20 µM (inactive)"},
      {"measurement": "IC50", "setting": "HEK293 [10]", "result": "> 20 µM (inactive)"},
      {"measurement": "IC50", "setting": "HEK293 [11]", "result": "> 20 µM (inactive)"},
      {"measurement": "IC50", "setting": "[12]", "result": "1.35 µM (active)"},
      {"measurement": "EC50", "setting": "cells [13]", "result": "> 350 µM (not active)"},
      {"measurement": "EC50", "setting": "BJ [14]", "result": "7.23 µM (inconclusive)"},
      {"measurement": "EC50", "setting": "[15]", "result": "1.96 µM (inconclusive)"},
      {"measurement": "IC50", "setting": "Nonstructural protein 1", "result": "9.19 µM (active)"},
      {"measurement": "AC50", "setting": "HEK293 [16]", "result": "4.67 µM (active)"},
      {"measurement": "AC50", "setting": "INS1", "result": "0.521 µM (active)"},
      {"measurement": "AC50", "setting": "[17]", "result": "0.889 µM (active)"},
      {"measurement": "AC50", "setting": "[18]", "result": "0.887 µM (active)"},
      {"measurement": "AC50", "setting": "[19]", "result": "> 70 µM (inactive)"}
    ]}
  ]
}
